Results as given in patent US20230391841A1, “MACROCYCLIC PEPTIDES” (Herantis Pharma OYJ, priority 2019, published 2023).
Bridge positions count the residues as written; N and C are the ends. Peptide text beside a SMILES is read from it.

Key:
GRP78-NBD = assay: Binding to GRP78-NBD Kd (μM)
From the text: Table printed on a drawing sheet, FIG. 5B
Head of the field: Binding to GRP78-NBD Kd (μM)
GRP78-NBD is shown in a translucent surface model along with its cartoon trace. The Cys-Cys bond in compound 12 (SEQ ID NO: 12) is shown in sticks.
The binding affinities are obtained by a microscale thermophoresis-based cell-free assay.
GSK2606414 was used to inhibit PERK signaling and KIRA6 to inhibit IRE1alpha signaling. * p<0.05, ** p<0.01, *** p<0.001, **** p<0.0001 one-way ANOVA is test with post-hoc Fisher's LSD test for pairwise comparison vs MPP+ negative control. # p<0.05, ## p<0.01, ### p<0.001, #### p<0.0001 one-way ANOVA test with post-hoc Fisher's LSD test for pairwise comparison between effect of compound alone and its combination with UPR signal inhibitor.
Where the first naming reader finds the target: head: Binding to GRP78-NBD Kd (μM)

[1] = In vitro metabolic stability in rat plasma; type: in vitro ADME; conditions: 1 μM, 37° C., up to 120 min
Procedure: The linear and macrocyclic compounds 1-14 and 23-26 (SEQ ID NOs: 1-14 and 23-26) were incubated in concentration 1 μM with rat plasma (Sprague-Dawley, male; 400 μl) for different time points (0, 20, 40, 60 or 120 min) at 37° C. The incubation was terminated by acetonitrile. The collected samples were centrifuged for 20 min at 2272×g and analyzed. io Stock solutions were prepared using 50% DMSO, and the compounds were spiked 1/100 to incubation to have final DMSO content of 0.5%. The samples were analyzed by UHPLC/PDA with high resolution mass spectrometry (QE-Orbitrap-MS on DDI mode) to monitor disappearance of the compound. Enalapril 1 μM was used as a disappearance rate control. For analysis of compounds 9, 10, 13 and 14 stock solutions were prepared with PBS, and samples were analyzed by UHPLC-ToF mass spectrometry. The analytical method was optimized by using the parent compounds for optimum chromatographic properties (peak shape and retention) and mass spectrometric ionization. The ion chromatograms were extracted from the total ion chromatograms using calculated monoisotopic accurate masses with 5 mDa window. Disappearance was based on LC/MS peak areas, marking 0 min as 100%.
The first-order rate constants k (min-1) of the metabolism were obtained from the slope of time versus logarithm (% of remaining compound) plot using Excel software. The in vitro half-life (t1/2) of study compound is defined as: t1/2=In2/k. Calculated half-life is based on compound disappearance from rat plasma.

[2] = In vitro metabolic stability in human plasma; type: in vitro ADME; conditions: 1 μM, 37° C., up to 120 min
Procedure: s Metabolic stability studied using human plasma over the time period of 120 min, with initial test concentration of 1 μM. Samples were analyzed using LC/QE-orbitrap-MS. Calculated half-life is based on compound disappearance in human plasma.
The linear or macrocyclic compounds 1-8, 11-14 and 23-24 (SEQ ID NOs: 1-8, 11-14 and 23-26) were incubated in concentration 1 μM with human plasma (mixed gender, 400 μl) for different time points (0, 20, 40, 60 or 120 min) at 37° C. The incubation was terminated by acetonitrile. The collected samples were centrifuged for 20 min at 2272×g and analyzed. The samples were analyzed by UHPLC/PDA with high resolution mass spectrometry (QE-Orbitrap-MS on DDI mode) to monitor disappearance of the compound. Propanthelin […] bromide 1 μM was used as a disappearance rate control. The analytical method was optimized by using the parent compounds for optimum chromatographic properties (peak shape and retention) and mass spectrometric ionization. The Ion chromatograms were extracted from the total ion chromatograms using calculated monoisotopic accurate masses with 5 mDa window. Disappearance was based on LC/MS peak areas, marking 0 min as 100%. The first-order rate constants k (min-1) of the metabolism were obtained from the slope of time versus logarithm (% of remaining compound) plot using Excel software.

[3] = tested on: dopaminergic TH-positive neurons injured with MPP+; assay: Dependence of neuroprotective activity on UPR pathway signaling (MPP+ injured mesencephalic neurons with PERK or IRE1alpha inhibitor); type: cell-based, rat; conditions: for neuroprotective effect in the presence of PERK inhibitor GSK2606414: GSK2606414 added 1 h before test compound; for neuroprotective effect in the presence of IRE1alpha inhibitor KIRA6: KIRA6 added 1 h before test compound
Procedure: CDNF and MANF protect cells from ER stress-induced cell dysfunction or cell death, such as apoptosis by modulating cellular responses to ER stress. […] Binding of compounds to GRP78-NBD was assessed in a cell-free binding assay using purified recombinant GRP78-NBD and synthesized peptides. As GRP78 also serves as a critical ligand of the three receptors of the unfolded protein response (UPR) pathway, […], PERK and ATF6, the dependency of the compounds' neuroprotective effects on UPR signaling was also tested.
The neuronal cell culture, MPP+ intoxication, immunostaining and analysis of neuroprotective effects of compounds were performed as in Example 1. PERK inhibitor GSK2606414 (2 µM , Sigma) or IRE1alpha inhibitor KIRA6 (2 µM , Sigma) were added to the culture 1 h before addition of the test compounds.

[4] = Brain microdialysis (striatal interstitial fluid) after intravenous bolus; type: in vivo, male Sprague-Dawley rats; conditions: single 10 mg/kg intravenous bolus, microdialysis 4 hours
Procedure: Microdialysis probes were inserted to the ventral striatum of rats through implanted guide […] cannulas and perfused by aCSF. Compound 14 was administered as a single 10 mg/kg intravenous bolus injection and microdialysis samples were collected in 20-min interval for 4 hours. The brain interstitial fluid (ISF) concentrations of the compound were determined by LC-MS/MS and normalized to the recovery-% of the microdialysis membrane (determined by in vitro experiments).
Brain microdialysis study was carried out on the separate group of awake animals treated intravenously with compound 14. One week before the microdialysis experiment Sprague- Dawley rats were implanted with a guide cannula in the striatum at the following coordinates: AP +0.6 mm; L −3.0 mm; V −2.8 mm, providing the final V −6.8 mm for the tip of the microdialysis probe. On the day of the experiment a microdialysis probe (Eicom A-I: 0.22 mm O.D., 4 mm membrane length with cut-off 50 kDa) were inserted into the guide cannula and perfused at a constant flow-rate of 0.1 μL/min with artificial cerebrospinal fluid (aCSF) solution. […] The brain intrastitial fluid concentrations of the compound were analysed by UHPLC-MS/MS. […] Determined recovery percentage (29.3%) was used for correction of the data obtained in microdialysis study.

| Structure (SMILES) | Kd (GRP78-NBD) [nM] | stability in rat plasma as compared to linear counterpart [1] | stability in human plasma as compared to linear counterpart [2] | neuroprotective effect in the presence of PERK inhibitor GSK2606414 [3] | neuroprotective effect in the presence of IRE1alpha inhibitor KIRA6 [3] | penetration to the brain parenchyma (brain ISF, striatum) [4] |
| --- | --- | --- | --- | --- | --- | --- |
| C[C@@H]1NC(=O)[C@@H]2CSSC[C@H](NC(=O)[C@H](CCC(=O)O)NC(=O)[C@H](CCC(=O)O)NC(=O)CNC(=O)[C@H](Cc3c[nH]c4ccccc34)NC(=O)[C@H]([C@@H](C)O)NC(=O)[C@H](CCCCN)NC(=O)[C@H](CCC(=O)O)NC1=O)C(=O)N[C@@H](CCCNC(=N)N)C(=O)N[C@@H](C)C(=O)N2 [Compound 12, WGEECRACAEKT] (cyclo(ACAEKTWGEECR); disulfide 2-11) | 1650 |  |  |  |  |  |
| CC[C@H](C)[C@@H]1NC(=O)[C@H](CCC(N)=O)NC(=O)[C@H](CCCCN)NC(=O)[C@H](CC(C)C)NC(=O)[C@H](CCC(=O)O)NC(=O)[C@H](C)NC(=O)[C@H](C(C)C)NC(=O)[C@H](CCCNC(=N)N)NC(=O)[C@H](CCSC)NC(=O)[C@H](CCCCN)NC(=O)[C@H](CCCNC(=N)N)NC(=O)[C@H](CC(C)C)NC(=O)[C@H](CC(=O)O)NC(=O)[C@H](C(C)C)NC(=O)[C@H](CCC(=O)O)NC(=O)[C@H](C)NC(=O)[C@@H]2CSSC[C@H](NC(=O)[C@H](CCC(=O)O)NC(=O)[C@H](CCC(=O)O)NC(=O)CNC(=O)[C@H](Cc3c[nH]c4ccccc34)NC(=O)[C@H](CO)NC(=O)[C@H](Cc3c[nH]cn3)NC(=O)[C@H](CC(C)C)NC1=O)C(=O)N[C@@H](CCCNC(=N)N)C(=O)N[C@@H](C)C(=O)N2 [Compound 2] (cyclo(ACAEVDLRKMRVAELKQILHSWGEECR); disulfide 2-26) |  | improved stability | improved stability |  |  |  |
| CC[C@H](C)[C@@H]1NC(=O)[C@H](CCCCN)NC(=O)[C@H](CCCCN)NC(=O)[C@H](CC(C)C)NC(=O)[C@H](CCC(=O)O)NC(=O)[C@H](CCCCN)NC(=O)[C@H](C(C)C)NC(=O)[C@H](CCCNC(=N)N)NC(=O)[C@H](CC(C)C)NC(=O)[C@H](CCCCN)NC(=O)[C@H](CCC(=O)O)NC(=O)[C@H](C)NC(=O)[C@@H]2CSSC[C@H](NC(=O)[C@H]([C@@H](C)O)NC(=O)[C@H](CCC(=O)O)NC(=O)CNC(=O)[C@H](Cc3c[nH]c4ccccc34)NC(=O)[C@H](CC(=O)O)NC(=O)[C@H](CC(=O)O)NC(=O)[C@H](CC(C)C)NC1=O)C(=O)N[C@@H](CCCCN)C(=O)NCC(=O)N2 [Compound 8] (cyclo(AEKLRVKELKKILDDWGETCKGC); disulfide 20-23) |  | improved stability |  |  |  |  |
| C[C@@H]1NC(=O)[C@@H]2CSSC[C@H](NC(=O)[C@H]([C@@H](C)O)NC(=O)[C@H](CCC(=O)O)NC(=O)CNC(=O)[C@H](Cc3c[nH]c4ccccc34)NC(=O)[C@H](CO)NC(=O)[C@H](CCCCN)NC(=O)[C@H](CCC(=O)O)NC1=O)C(=O)N[C@@H](CCCCN)C(=O)NCC(=O)N2 [Compound 14, WGETCKGCAEKS] (cyclo(AEKSWGETCKGC); disulfide 9-12) | 1500 | improved stability |  | abolished | abolished | penetration |
| C[C@@H]1NC(=O)[C@@H]2CSSC[C@H](NC(=O)[C@H]([C@@H](C)O)NC(=O)[C@H](CCC(=O)O)NC(=O)CNC(=O)[C@H](Cc3c[nH]c4ccccc34)NC(=O)[C@H](CO)NC(=O)[C@H](CCCCN)NC(=O)[C@H](CCC(=O)O)NC1=O)C(=O)N[C@@H](CCCCN)C(=O)NCC(=O)NCC(=O)N2 [Compound 26, WGETCKGGCAEKS] (cyclo(AEKSWGETCKGGC); disulfide 9-13) |  | improved stability | improved stability |  |  |  |
| CC[C@H](C)[C@@H]1NC(=O)[C@H](CO)NC(=O)[C@H](CCCCN)NC(=O)[C@H](CCC(=O)O)NC(=O)[C@H](C)NC(=O)[C@@H]2CSSC[C@H](NC(=O)[C@H]([C@@H](C)O)NC(=O)[C@H](CCC(=O)O)NC(=O)CNC(=O)[C@H](Cc3c[nH]c4ccccc34)NC(=O)[C@H](CC(=O)O)NC(=O)[C@H](CC(=O)O)NC(=O)[C@H](CC(C)C)NC1=O)C(=O)N[C@@H](CCCCN)C(=O)NCC(=O)N2 [Compound 10, KSILDDWGETCKGCAE] (cyclo(AEKSILDDWGETCKGC); disulfide 13-16) |  | improved stability |  | abolished | abolished |  |
